In US9765018B2, “IDO inhibitors” (BRISTOL-MYERS SQUIBB COMPANY, priority 2013, dated 2017):

biological target: IDO (Homo sapiens (Human), UniProt P14902); test: Kynurenine assay in IFN-γ-stimulated Hela cells; format: cell-based; conditions: 20 h, read-out: Hela Kyurenine (IC50)
Description: Reagents: Hela cells (ATCC, CCL-2)
IFNg (R&D, 28-IF-100)—resuspend at 10 ug/mL in PBS with 0.1% BSA 30% TCA
Ehrlich reagent (2% w/v p-dimethylaminobenzaldehyde in glacial acetic acid)
Cell Lines and Culture Conditions
Hela cancer cell lines were acquired from the American Type Culture Collection. Cells were maintained in phenol red free-RPMI1640 medium containing high glucose and L-glutamine (Invitrogen) supplemented with 10% fetal bovine serum (FBS; Invitrogen). Cell cultures were incubated at 37° C., 5% CO2, and 100% humidity.
Cell Treatment and Kynurenine Assay
Hela cells were seeded on 96-well plates (40,000 cells per well) and allowed to adhere for 5-6 hours. Cells were then treated with vehicle (DMSO) or with IDO inhibitor at a top dose of 30 μM (3-fold dilution all the way down to 1.5 nM). A final concentration of 100 ng/mL of human recombinant IFN-γ (R&D, 28-IF-100) was immediately added to the cells to stimulate IDO expression. Treated cells were then incubated for 20 hours at 37° C. At the end of the 20 h incubation, reactions were terminated by the addition of 30% TCA to each well. Plates were incubated for 30 minutes at 50° C. to hydrolyze N-formylkynurenine to kynurenine. Cells were centrifuged 10 minutes at 2400 rpm. 100 ul of supernatants were transferred to new 96 flat well plates and mixed with 100 ul Ehrlich reagent. The resulting solution was incubated 10 minutes at RT. Absorbance at 490 nm was read using Spectra Max 384 (Molecular Devices).

IDO, sequence (P14902 whole entry): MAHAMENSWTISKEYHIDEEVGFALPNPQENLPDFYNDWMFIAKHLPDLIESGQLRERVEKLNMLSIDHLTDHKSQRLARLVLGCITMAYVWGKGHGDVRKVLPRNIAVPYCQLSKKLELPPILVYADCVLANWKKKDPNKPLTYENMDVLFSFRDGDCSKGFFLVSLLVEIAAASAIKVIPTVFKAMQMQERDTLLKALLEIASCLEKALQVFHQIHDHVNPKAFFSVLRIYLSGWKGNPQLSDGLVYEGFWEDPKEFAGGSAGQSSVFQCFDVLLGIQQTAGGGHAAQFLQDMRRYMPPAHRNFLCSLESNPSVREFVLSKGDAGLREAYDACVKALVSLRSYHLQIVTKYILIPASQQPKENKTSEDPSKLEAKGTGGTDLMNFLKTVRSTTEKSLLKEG

Row | Compound | IC50
1 | 4′-(2-(tert-butyl)phenoxy)-3′-(3-(4-chlorophenyl)ureido)-4-methoxy-[1,1′-biphenyl]-3-carboxylic acid [Example 106] | 470 nM
2 | 4′-(2-(tert-butyl)phenoxy)-3′-(3-(4-fluorophenyl)ureido)-4-methoxy-[1,1′-biphenyl]-3-carboxylic acid [Example 107] | 320 nM
3 | COc1ccc(-c2ccc(O[C@@H]3CCCC[C@H]3C)c(NC(=O)Nc3ccc(C)cc3)c2)cc1C(=O)O (relative stereo) [Example 134, 4-methoxy-4′-((trans)-2-methylcyclohexyloxy)-3′-(3-p-tolylureido)biphenyl-3-carboxylic acid] | 1390 nM
4 | COc1ccc(-c2ccc(O[C@@H]3CCCC[C@H]3C)c(NC(=O)Nc3ccccc3C)c2)cc1C(=O)O (relative stereo) [Example 137, 4-methoxy-4′-((trans)-2-methylcyclohexyloxy)-3′-(3-o-tolylureido)biphenyl-3-carboxylic acid] | 2430 nM
5 | Cc1ccc(NC(=O)Nc2cc(-c3ccccc3-c3nnn[nH]3)ccc2Oc2ccccc2C(C)(C)C)cc1 [Example 4, 1-(4-(2-tert-Butylphenoxy)-2′-(1H-tetrazol-5-yl)biphenyl-3-yl)-3-p-tolylurea] | 30 nM
6 | Cc1ccc(NC(=O)Nc2cc(-c3ccccc3C(=O)NS(C)(=O)=O)ccc2Oc2ccccc2C(C)(C)C)cc1 [Example 6, 4′-(2-tert-Butylphenoxy)-N-(methylsulfonyl)-3′-(3-p-tolylureido)biphenyl-2-carboxamide] | 730 nM
7 | COc1ccc(-c2ccc(Oc3ccccc3C(C)(C)C)c(NC(=O)Nc3ccc(C)cc3)c2)cc1C(=O)NS(C)(=O)=O [Example 41, 4′-(2-tert-butylphenoxy)-4-methoxy-N-(methylsulfonyl)-3′-(3-p-tolylureido)biphenyl-3-carboxamide] | 430 nM
8 | COc1ccc(-c2ccc(Oc3ccccc3C(C)(C)C)c(NC(=O)Nc3ccccc3C)c2)cc1C(=O)O [Example 44, 4′-(2-tert-butylphenoxy)-4-methoxy-3′-(3-o-tolylureido)biphenyl-3-carboxylic acid] | 490 nM
9 | CCc1ccccc1Oc1ccc(-c2ccc(OC)c(C(=O)O)c2)cc1NC(=O)Nc1ccc(C)cc1 [Example 47, 4′-(2-ethylphenoxy)-4-methoxy-3′-(3-p-tolylureido)biphenyl-3-carboxylic acid] | 540 nM
10 | CCc1ccccc1Oc1ccc(-c2ccc(OC)c(C(=O)O)c2)cc1NC(=O)Nc1ccc(C(F)(F)F)cc1 [Example 48, 4′-(2-ethylphenoxy)-4-methoxy-3′-(3-(4-(trifluoromethyl)phenyl)ureido)biphenyl-3-carboxylic acid] | 1230 nM
11 | COc1ccc(-c2ccc(Oc3ccccc3Cl)c(NC(=O)Nc3cccc(C)c3)c2)cc1C(=O)O [Example 50, 4′-(2-chlorophenoxy)-4-methoxy-3′-(3-m-tolylureido)biphenyl-3-carboxylic acid] | 900 nM
12 | COc1ccc(-c2ccc(Oc3ccccc3Cl)c(NC(=O)Nc3ccc(C)cc3)c2)cc1C(=O)O [Example 51, 4′-(2-chlorophenoxy)-4-methoxy-3′-(3-p-tolylureido)biphenyl-3-carboxylic acid] | 830 nM
13 | COc1ccc(-c2ccc(Oc3ccccc3Cl)c(NC(=O)Nc3ccccc3C(F)(F)F)c2)cc1C(=O)O [Example 52, 4′-(2-chlorophenoxy)-4-methoxy-3′-(3-(2-(trifluoromethyl)phenyl)ureido)biphenyl-3-carboxylic acid] | 1270 nM
14 | COc1ccc(-c2ccc(Oc3ccccc3Cl)c(NC(=O)Nc3ccccc3C)c2)cc1C(=O)O [Example 53, 4′-(2-chlorophenoxy)-4-methoxy-3′-(3-o-tolylureido)biphenyl-3-carboxylic acid] | 2180 nM
15 | CCc1ccccc1Oc1ccc(-c2ccc(OC)c(C(=O)O)c2)cc1NC(=O)Nc1ccccc1Cl [Example 55, 3′-(3-(2-chlorophenyl)ureido)-4′-(2-ethylphenoxy)-4-methoxybiphenyl-3-carboxylic acid] | 110 nM
16 | CCc1ccccc1Oc1ccc(-c2ccc(OC)c(C(=O)O)c2)cc1NC(=O)Nc1ccccc1C [Example 56, 4′-(2-ethylphenoxy)-4-methoxy-3′-(3-o-tolylureido)biphenyl-3-carboxylic acid] | 130 nM
17 | COc1ccc(-c2ccc(Oc3c(C)cccc3C(C)(C)C)c(NC(=O)Nc3ccccc3C)c2)cc1C(=O)O [Example 59, 4′-(2-tert-butyl-6-methylphenoxy)-4-methoxy-3′-(3-o-tolylureido)biphenyl-3-carboxylic acid] | 880 nM

Row | Compound | IC50
18 | COc1ccc(-c2ccc(Oc3c(C)cccc3C(C)(C)C)c(NC(=O)Nc3ccc(C)cc3)c2)cc1C(=O)O [Example 61, 4′-(2-tert-butyl-6-methylphenoxy)-4-methoxy-3′-(3-p-tolylureido)biphenyl-3-carboxylic acid] | 310 nM
19 | CCc1ccc(NC(=O)Nc2cc(-c3ccc(OC)c(C(=O)O)c3)ccc2Oc2ccccc2C(C)(C)C)cc1 [Example 67, 4′-(2-tert-butylphenoxy)-3′-(3-(4-ethylphenyl)ureido)-4-methoxybiphenyl-3-carboxylic acid] | 580 nM
20 | COc1ccccc1Oc1ccc(-c2ccc(OC)c(C(=O)O)c2)cc1NC(=O)Nc1ccccc1Cl [Example 68, 3′-(3-(2-chlorophenyl)ureido)-4-methoxy-4′-(2-methoxyphenoxy)biphenyl-3-carboxylic acid] | 490 nM
21 | COc1ccc(-c2ccc(Oc3ccccc3C)c(NC(=O)Nc3cccc(C)c3)c2)cc1C(=O)O [Example 70, 4-methoxy-4′-(o-tolyloxy)-3′-(3-m-tolylureido)biphenyl-3-carboxylic acid] | 390 nM
22 | COc1ccc(-c2ccc(Oc3ccccc3C)c(NC(=O)Nc3ccccc3Cl)c2)cc1C(=O)O [Example 71, 3′-(3-(2-chlorophenyl)ureido)-4-methoxy-4′-(o-tolyloxy)biphenyl-3-carboxylic acid] | 180 nM
23 | COc1ccc(-c2ccc(Oc3ccccc3C)c(NC(=O)Nc3ccccc3C)c2)cc1C(=O)O [Example 72, 4-methoxy-4′-(o-tolyloxy)-3′-(3-o-tolylureido)biphenyl-3-carboxylic acid] | 380 nM
24 | COc1ccc(-c2ccc(Oc3ccccc3C(C)(C)C)c(NC(=O)Nc3ccccc3)c2)cc1C(=O)O [Example 78, 4′-(2-(tert-butyl)phenoxy)-4-methoxy-3′-(3-phenylureido)-[1,1′-biphenyl]-3-carboxylic acid] | 80 nM
25 | COc1ccc(-c2ccc(Oc3ccccc3C(C)(C)C)c(NC(=O)Nc3c(F)cccc3F)c2)cc1C(=O)O [Example 80, 4′-(2-(tert-butyl)phenoxy)-3′-(3-(2,6-difluorophenyl)ureido)-4-methoxy-[1,1′-biphenyl]-3-carboxylic acid] | 130 nM
26 | COc1ccc(-c2ccc(Oc3ccccc3C(C)(C)C)c(NC(=O)Nc3c(Cl)cccc3Cl)c2)cc1C(=O)O [Example 82, 4′-(2-(tert-butyl)phenoxy)-3′-(3-(2,6-dichlorophenyl)ureido)-4-methoxy-[1,1′-biphenyl]-3-carboxylic acid] | 840 nM
27 | COc1ccc(-c2ccc(Oc3ccccc3C(C)(C)C)c(NC(=O)Nc3cccc(F)c3)c2)cc1C(=O)O [Example 84, 4′-(2-(tert-butyl)phenoxy)-3′-(3-(3-fluorophenyl)ureido)-4-methoxy-[1,1′-biphenyl]-3-carboxylic acid] | 160 nM
28 | COc1ccc(-c2ccc(Oc3ccccc3C(C)(C)C)c(NC(=O)Nc3cccc(Cl)c3)c2)cc1C(=O)O [Example 85, 4′-(2-(tert-butyl)phenoxy)-3′-(3-(3-chlorophenyl)ureido)-4-methoxy-[1,1′-biphenyl]-3-carboxylic acid] | 110 nM
29 | COc1cccc(NC(=O)Nc2cc(-c3ccc(OC)c(C(=O)O)c3)ccc2Oc2ccccc2C(C)(C)C)c1 [Example 86, 4′-(2-(tert-butyl)phenoxy)-3′-(3-(3-methoxyphenyl)ureido)-4-methoxy-[1,1′-biphenyl]-3-carboxylic acid] | 230 nM
30 | COc1ccc(NC(=O)Nc2cc(-c3ccc(OC)c(C(=O)O)c3)ccc2Oc2ccccc2C(C)(C)C)cc1 [Example 87, 4′-(2-(tert-butyl)phenoxy)-3′-(3-(4-methoxyphenyl)ureido)-4-methoxy-[1,1′-biphenyl]-3-carboxylic acid] | 280 nM
31 | COc1ccc(-c2ccc(Oc3ccccc3C(C)(C)C)c(NC(=O)NC(C)(C)C)c2)cc1C(=O)O [Example 88, 4′-(2-(tert-butyl)phenoxy)-3′-(3-(tert-butyl)ureido)-4-methoxy-[1,1′-biphenyl]-3-carboxylic acid] | 130 nM
32 | CCCNC(=O)Nc1cc(-c2ccc(OC)c(C(=O)O)c2)ccc1Oc1ccccc1C(C)(C)C [Example 89, 4′-(2-(tert-butyl)phenoxy)-3′-(3-(n-propyl)ureido)-4-methoxy-[1,1′-biphenyl]-3-carboxylic acid] | 120 nM
33 | CCCCNC(=O)Nc1cc(-c2ccc(OC)c(C(=O)O)c2)ccc1Oc1ccccc1C(C)(C)C [Example 90, 4′-(2-(tert-butyl)phenoxy)-3′-(3-(n-butyl)ureido)-4-methoxy-[1,1′-biphenyl]-3-carboxylic acid] | 260 nM
